Like-named read-outs stand apart in the source and are kept apart here.
Key:
[1] = Metabolic stability in liver microsomes; type: in vitro ADME; settings: compound 1 μM; for metabolic stability (halftime in minutes), Dog: Beagle dog liver microsomes; for metabolic stability (halftime in minutes), Mouse: CD-1 mouse liver microsomes; for metabolic stability (halftime in minutes), Monkey: Cynomolgus monkey liver microsomes; for metabolic stability (halftime in minutes), Rat: SD rat liver microsomes
Protocol: The metabolic stability was examined in human, rat, mouse, dog and cynomolgus monkey liver microsomes. Compound (1 μM) was mixed with diluted liver microsomes from each of the 5 species and a small aliquot was taken at 0, 5, 10, 20, 30 and 60 minutes for HPLC MS/MS analysis. Intrinsic clearance and half-life were calculated.

Autotaxin = target: T1, Autotaxin (Homo sapiens, UniProt Q13822); experiment: LPA formation in pooled human plasma (ex vivo autotaxin inhibition); type: biochemical; settings: 2 hours incubation
T1 construct: from tissue; host or cells: pooled human plasma
Procedure, shortened: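 Ex vivo: LPA 18:2 and 20:4 levels in compound-treated versus untreated pooled human plasma after 2 h incubation, measured by butanol extraction and negative-mode MRM LC/MS/MS against calibration standards. IC50 from non-linear fit of inhibition versus concentration.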

[2] = Metabolic stability in human hepatocytes; type: in vitro ADME; settings: cryopreserved human hepatocytes 0.5 million/mL, compound 1 μM
Protocol: The metabolic stability was examined in cryopreserved human hepatocytes. Compound (1 μM) was mixed with human hepatocytes at 0.5 million/mL, and a small aliquot was taken at 0, 15, 30, 60 and 90 minutes for LC/MS/MS analysis. Intrinsic clearance and half-time were calculated.

CYP 2C9 = target: T2, CYP 2C9 (Homo sapiens, UniProt P11712); experiment: CYP inhibition in human liver microsome; type: in vitro ADME; settings: human liver microsomes, substrate diclofenac (5 μM); compounds diluted 1:3 starting at 50 μM; read-out: IC50 in CYP isozyme 2C9
T2 construct: from tissue; host or cells: human liver microsomes
Protocol: (§1) Test compounds were evaluated for CYP inhibition using human liver microsomes (HLM). Test compounds were 1:3 serially diluted starting at 50 μM to generate 7 different concentrations. After incubation of diluted test compounds with HLM, a substrate cocktail composed of phenacetin (10 μM), amodiaquine (2 μM), diclofenac (5 μM), s-mephenytoin (30 μM), dextromethorphan (5 μM), and midazolam (2 μM) was added to check the remaining CYP activity for CYP 1A2, 2C8, 2C9, 2C19, 2D6 and 3A4. The CYP activity was measured by detecting the peak area of individual metabolites of know CYP substrates using LC/MS/MS. A percentage of inhibition of CYP was calculated at each final concentration of test compound, through which an IC50 was fitted to represent the inhibition potential.

CYP 1A2 = target: T3, CYP 1A2 (Homo sapiens, UniProt P05177); experiment: CYP inhibition in human liver microsome; type: in vitro ADME; settings: human liver microsomes, substrate phenacetin (10 μM); compounds diluted 1:3 starting at 50 μM; read-out: IC50 in CYP isozyme 1A2
T3 construct: from tissue; host or cells: human liver microsomes
T3 sequence (P05177 1-516): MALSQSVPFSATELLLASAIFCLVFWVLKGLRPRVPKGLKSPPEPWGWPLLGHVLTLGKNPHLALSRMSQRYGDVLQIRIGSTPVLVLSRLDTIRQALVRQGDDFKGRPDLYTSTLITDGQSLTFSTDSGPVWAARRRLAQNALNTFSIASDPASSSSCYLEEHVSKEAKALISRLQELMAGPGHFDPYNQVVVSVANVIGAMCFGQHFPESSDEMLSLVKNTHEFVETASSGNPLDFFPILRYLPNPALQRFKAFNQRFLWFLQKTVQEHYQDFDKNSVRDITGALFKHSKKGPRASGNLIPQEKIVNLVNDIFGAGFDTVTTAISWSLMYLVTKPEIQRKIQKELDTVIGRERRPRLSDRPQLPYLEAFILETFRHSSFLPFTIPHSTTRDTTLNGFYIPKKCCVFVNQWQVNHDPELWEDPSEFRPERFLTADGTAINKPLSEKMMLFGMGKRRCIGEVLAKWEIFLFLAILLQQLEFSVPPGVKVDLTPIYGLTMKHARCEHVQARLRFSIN
Protocol: as §1

CYP 3A4 = target: T4, CYP 3A4 (Homo sapiens, UniProt P08684); experiment: CYP inhibition in human liver microsome; type: in vitro ADME; settings: human liver microsomes, substrate midazolam (2 μM); compounds diluted 1:3 starting at 50 μM; read-out: IC50 in CYP isozyme 3A4
T4 construct: from tissue; host or cells: human liver microsomes
Protocol: as §1

CYP 2D6 = target: T5, CYP 2D6 (Homo sapiens, UniProt P10635); experiment: CYP inhibition in human liver microsome; type: in vitro ADME; settings: human liver microsomes, substrate dextromethorphan (5 μM); compounds diluted 1:3 starting at 50 μM; read-out: IC50 in CYP isozyme 2D6
T5 construct: from tissue; host or cells: human liver microsomes
Protocol: as §1

[3] = Pharmacokinetics in cynomolgus monkeys; type: in vivo; settings: male, cynomolgus monkey, plasma, iv, I.V. (1 mg/kg)
[4] = LPA 18:2 by LC/MS/MS, read-out: LPA formation (18:2) (IC50)
[5] = LPA 20:4 by LC/MS/MS, read-out: LPA formation (20:4) (IC50)

T4 sequence (P08684 whole entry): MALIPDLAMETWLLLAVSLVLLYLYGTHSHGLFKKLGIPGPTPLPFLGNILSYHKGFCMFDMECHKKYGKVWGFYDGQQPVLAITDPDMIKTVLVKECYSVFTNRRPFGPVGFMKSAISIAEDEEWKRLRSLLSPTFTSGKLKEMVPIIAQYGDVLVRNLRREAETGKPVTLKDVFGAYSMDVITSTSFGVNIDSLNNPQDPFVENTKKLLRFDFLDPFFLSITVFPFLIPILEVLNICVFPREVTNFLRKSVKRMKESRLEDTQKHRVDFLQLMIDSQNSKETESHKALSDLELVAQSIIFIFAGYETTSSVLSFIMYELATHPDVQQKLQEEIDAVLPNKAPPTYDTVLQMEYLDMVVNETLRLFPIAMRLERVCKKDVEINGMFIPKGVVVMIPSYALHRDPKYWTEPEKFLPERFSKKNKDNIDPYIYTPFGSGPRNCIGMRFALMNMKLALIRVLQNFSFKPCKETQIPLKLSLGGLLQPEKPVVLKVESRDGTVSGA
T2 sequence (P11712 whole entry): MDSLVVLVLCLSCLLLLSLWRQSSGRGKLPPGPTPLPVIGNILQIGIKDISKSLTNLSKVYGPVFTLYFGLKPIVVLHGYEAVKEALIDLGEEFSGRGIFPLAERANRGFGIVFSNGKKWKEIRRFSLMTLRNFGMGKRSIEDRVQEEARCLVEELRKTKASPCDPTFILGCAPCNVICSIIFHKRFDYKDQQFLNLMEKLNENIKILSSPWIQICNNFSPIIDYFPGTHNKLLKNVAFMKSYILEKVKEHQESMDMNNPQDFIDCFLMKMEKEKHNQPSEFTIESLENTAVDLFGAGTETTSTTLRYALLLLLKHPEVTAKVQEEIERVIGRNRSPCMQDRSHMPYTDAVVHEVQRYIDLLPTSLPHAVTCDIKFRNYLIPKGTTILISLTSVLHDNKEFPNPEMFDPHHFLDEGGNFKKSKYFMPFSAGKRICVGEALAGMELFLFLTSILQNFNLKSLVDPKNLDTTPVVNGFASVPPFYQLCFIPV
T5 sequence (P10635 whole entry): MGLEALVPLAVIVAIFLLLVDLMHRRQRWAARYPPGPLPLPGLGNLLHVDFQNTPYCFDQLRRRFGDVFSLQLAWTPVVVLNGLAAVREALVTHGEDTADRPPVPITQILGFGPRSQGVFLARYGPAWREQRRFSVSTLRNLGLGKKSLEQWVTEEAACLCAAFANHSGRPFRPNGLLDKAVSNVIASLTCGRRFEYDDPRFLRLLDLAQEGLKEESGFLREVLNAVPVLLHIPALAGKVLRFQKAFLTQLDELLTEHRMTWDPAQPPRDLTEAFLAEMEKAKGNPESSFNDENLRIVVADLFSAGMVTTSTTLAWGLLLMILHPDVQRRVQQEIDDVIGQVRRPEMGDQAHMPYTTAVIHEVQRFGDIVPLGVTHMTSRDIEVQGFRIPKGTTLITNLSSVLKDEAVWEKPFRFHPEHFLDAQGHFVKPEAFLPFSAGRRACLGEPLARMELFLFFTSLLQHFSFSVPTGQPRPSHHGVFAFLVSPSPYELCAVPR

metabolic stability (halftime in minutes), Dog [1] [min] | metabolic stability (halftime in minutes), Mouse [1] [min] | metabolic stability (halftime in minutes), Monkey [1] [min] | metabolic stability (halftime in minutes), Rat [1] [min] | metabolic stability (halftime in minutes), Human [1] [min] | IC50 (Autotaxin; [4]) [µM] | IC50 (Autotaxin; [5]) [µM] | metabolic stability (halftime in minutes), Human [2] [min] | IC50 (CYP 2C9) [µM] | IC50 (CYP 1A2) [µM] | IC50 (CYP 3A4) [µM] | IC50 (CYP 2D6) [µM] | AUC [3] [ng·h/mL] | C0 [3] [ng/mL] | clearance [3] [mL/min/kg] | half-life [3] [h] | SMILES
71.9 | 14.0 | 9.8 | 96.6 | 24.5 | ≤ 0.1 | ≤ 0.1 | >216.8 | 17.3 | > 50 | > 50 | > 50 | 1990 ± 92 | 1220 ± 166 | 8.21 ± 0.38 | 1.82 ± 0.1 | CCc1nn2cc(F)c(N3CCN(CC(=O)N4CC(O)C4)CC3)cc2c1N(C)c1nc(-c2ccc(F)cc2)c(C#N)s1 [Example 101, 2-[[2-ethyl-6-fluoro-5-[4-[2-(3-hydroxyazetidin-1-yl)-2-oxo-ethyl]piperazin-1-yl]pyrazolo[1,5-a]pyridin-3-yl]-methyl-amino]-4-(4-fluorophenyl)thiazole-5-carbonitrile]
32.1 | 10.3 | 4.8 | 9.2 | 10.8 | – | – | 117.9 | 16.7 | > 50 | 13.5 | > 50 | 2770 ± 246 | 4210 ± 1150 | 6.02 ± 0.51 | 1.41 ± 0.19 | CCc1nc2c(C)cc(N3CCN(CC(=O)N4CC(O)C4)CC3)cn2c1N(C)c1nc(-c2ccc(F)cc2)c(C#N)s1 [GLPG1690]
69.8 | 17.9 | 6.4 | 67.3 | 13.4 | ≤ 0.1 | ≤ 0.1 | 76.6 | 5.69 | 13.9 | > 50 | > 50 | – | – | – | – | CCc1nn2cc(F)c(N3CC4(CN(C(=O)[C@H]5CCOC5)C4)C3)cc2c1N(C)c1nc(-c2ccc(F)cc2)c(C#N)s1 [Example 102, 2-[[2-ethyl-6-fluoro-5-[2-[(3S)-tetrahydrofuran-3-carbonyl]-2,6-diazaspiro[3.3]heptan-6-yl]pyrazolo[1,5-a]pyridin-3-yl]-methyl-amino]-4-(4-fluorophenyl)thiazole-5-carbonitrile]
>145 | 58.5 | 21.3 | >145 | 75.4 | ≤ 0.1 | ≤ 0.1 | >216.8 | 15.9 | > 50 | > 50 | > 50 | 2640 ± 473 | 993 ± 8.6 | 6.06 ± 1.2 | 6.59 ± 1.5 | CCn1nc2ncc(N3CC4(CN(C(=O)C5CCOCC5)C4)C3)cc2c1N(C)c1nc(-c2ccc(F)cc2)c(C#N)s1 [Compound 118, 2-((2-ethyl-5-(6-(tetrahydro-2H-pyran-4-carbonyl)-2,6-diazaspiro[3.3]heptan-2-yl)-2H-pyrazolo[3,4-b]pyridin-3-yl)(methyl)amino)-4-(4-fluorophenyl)thiazole-5-carbonitrile]
